Results published in US11559512B2, “Composition for prevention, alleviation, and/or treatment of heat illness” (priority 2017, dated 2023).
“Also recorded” adds a separate entry of the source.

How the values were obtained:
PPARα = PPARα expression in HUVECs, antibody staining, confocal microscopy; type: cell-based, human
Procedure: (§1) Then, six 35-mm dishes were provided, and 2 mL/dish of the solution with the adjusted HUVEC density was inoculated. Auraptene (10 mM) and tangeretin (10 mM) were each added at 2 μL (final concentration: 10 μM)/dish to two dishes. Also, DMSO was added at 2 μL/dish to the remaining 2 dishes to prepare a control.
(§2) The supernatant of the HUVECs cultured in each 35-mm dish was removed, and 2 mL/dish of 4% paraformaldehyde in a phosphate buffer solution was added. The cells were left standing at room temperature for 1 hour.
(§3) The solution was removed, and then, the cells were rinsed twice. 2 mL/dish of 0.5% Triton-X00 (Wako Pure Chemical Industries, Ltd.) in PBS was added, and the cells were left standing at room temperature for 5 minutes. The solution was removed, and then, the cells were rinsed twice. 1 mL/dish of an anti-ABCD3 antibody, an anti-PPARα antibody or an anti-PPARγ antibody, each of which was diluted 150-fold with a FACS buffer, was added, and the cells were left standing at room temperature for 2 hours for reaction.
(§4) The solution was removed, and then, the cells were rinsed twice. 1 mL/dish of DyLight 649-labeled anti-Rabbit IgG antibody diluted 500-fold with a FACS buffer was added, and the cells were left standing at room temperature for 1 hour in the dark for reaction. The solution was removed, and then, the cells were rinsed twice. Two drops of Diamond Antifade Mountant with DAPI were added to the cells, and a round glass cover was put on the cells, followed by fluorescence photographing under a confocal laser scanning microscope.

PPARγ = PPARγ expression in HUVECs, antibody staining, confocal microscopy; type: cell-based, human
Procedure: as §1, §2, §3, §4

ABCD3 = ABCD3 expression in HUVECs, antibody staining, confocal microscopy; type: cell-based, human; conditions: usual culture and heat stress load (40° C. for 3 days), vs DMSO
Procedure: as §1, §2, §3
The solution was removed, and then, the cells were rinsed twice. […] Two drops of Diamond Antifade Mountant with DAPI were added to the cells, and a round glass cover was put on the cells, followed by fluorescence photographing under a confocal laser scanning microscope.

IL-6 = IL-6 concentration in supernatant of lymphocytes under heat stress load (ELISA); type: cell-based, human
Procedure: 10 mL of human peripheral blood was collected and anti-coagulated with heparin, and 10 mL of PBS(−) was added thereto and stirred. 15 mL of Lymphocyte Separation Medium 1077 (PromoCell GmbH) was layered thereon so as not to mix blood thereinto, followed by blood separation at 1600 rpm for 30 minutes in a centrifuge. The mononuclear cell layer thus separated was collected into a dropper, added to 20 mL of a culture medium, and centrifuged at 1500 rpm for 5 minutes in a centrifuge. The supernatant was removed, and then, 20 mL of a culture medium was added to the cells and stirred. The cells were centrifuged again at 1500 rpm for 5 minutes in a centrifuge. The supernatant was removed, and then, 10 mL of a culture medium was added to the cells and stirred. The whole amount was added to a 10-cm dish and incubated at 37° C. for 1 hour in a 5% CO2 environment. […] The solution with the adjusted lymphocyte density was inoculated at 4 mL/well to 2 wells of each 6-well plate. […] Then, the supernatant was recovered into a 1.5 mL Eppendorf tube and centrifuged at 8000 rpm for 5 minutes in a centrifuge. The supernatant was recovered into a fresh 1.5-mL Eppendorf tube and preserved at −20° C.
Human IL-6 of an ELISA kit was used in IL-6 measurement. 5× Coating Buffer A included in the assay kit was diluted 5-fold with distilled water. Capture Antibody diluted 200-fold with the Coating Buffer was added at 100 μL/well to a 96-well plate, and the plate was left standing overnight at 4° C.
The antibody solution was removed, and each well was washed four times. A very small amount of the reaction solution remaining in the plate was completely removed with Kim Towel. Then, ELISA Assay Diluent (BioLegend, Inc.) diluted 5-fold with distilled water was added at 200 μL/well, and the plate was left standing overnight at 4° C.
The solution was removed, and each well was washed four times. A very small amount of the reaction solution remaining in the plate was completely removed with Kim Towel. IL-6 standard protein was diluted with Assay Diluent to prepare dilution series of the IL-6 standard protein. The dilution series of the IL-6 standard protein and the 40° C. culture supernatant of the lymphocytes were added at 100 μL/well, and the plate was left standing at room temperature for 2 hours. The solution was removed, and each well was washed four times. A very small amount of the reaction solution remaining in the plate was completely removed with Kim Towel. Detection Antibody diluted 200-fold with Assay Diluent was added at 100 μL/well, and the plate was left standing at room temperature for 1 hour. […] The reaction was terminated by the addition of 2 N H2SO4 at 100 μL/well, followed by the absorbance measurement of the reaction solution in a plate reader at 450 nm.

[1] = system: human vascular endothelial cells (HUVECs); assay: Suppression of cell death by addition of medium chain fatty acid, crystal violet / phase contrast microscopy; type: cell-based; conditions: auraptene 5 μM used alone, printed at 37° C. (FIG. 19A)
[2] = HUVECs, 40° C. and 1 day, 10 μM, vs DMSO
[3] = Table 2 summary, HUVECs 40° C., 37° C. as comparative control

CC(C)=CCC/C(C)=C/COc1ccc2ccc(=O)oc2c1 [auraptene, 7-geranyloxycoumarin]
expression of PPARα (PPARα; [2]): increase in the expression of PPARα | PPARα (PPARα; [3]): Increased | expression of PPARγ (PPARγ; [2]): increase in the expression of PPARγ | PPARγ (PPARγ; [3]): Unchanged | change in the expression of ABCD3 (ABCD3): change in the expression of ABCD3 was not observed; also recorded: not found | Pyrogenic factor (IL-6; Table 2 summary, 40° C., inflammatory cytokines, e.g. IL-6 and CCL-2): Decreased | IL-6 sample A (IL-6; peripheral blood lymphocytes sample A, 40° C., auraptene 10 μM, non-addition 10 ± 1.1): 5 ± 0.3 pg/mL | IL-6 sample B (IL-6; peripheral blood lymphocytes sample B, 40° C., auraptene 10 μM, non-addition 18 ± 0.8): 10 ± 0.1 pg/mL | production of IL-6 (IL-6; peripheral blood lymphocytes under heat stress load, vs DMSO, p<0.05): significantly suppressed | overall number of cells, auraptene alone [1]: increase the overall number of cells
